Patent publication US7462605B2, “Phosphoramidate compounds and methods of use” (Celmed Oncology (USA), Inc., priority 2002, dated 2008)

How the values were obtained:
[1] = target: T1, rHuTS (recombinant human thymidylate synthase) (Homo sapiens, UniProt P04818); experiment: Enzyme kinetics of rHuTS with dUMP and BVdUMP; format: biochemical
T1 construct: His tag (from pET-28a(+)) (N); made in house; host or cells: E. coli BL21 (DE3)/pET-28a(+)
Protocol: Enzyme Preparation. Cloned human thymidylate synthase plasmid pBCHTS was subcloned into E. coli. BL21 (DE3)/pET-28a(+) (Novagen) using the Ndel ñSacI insertion site, in order to add an amino terminal His tag. Enzyme was expressed in E. coli. by induction with IPTG, and purified by affinity chromatography on a Ni^2+ His Bind metal chelation resin (Novagen). The column Ni^2+ His Bind metal chelation column was washed with 20 mM Tris pH 7.9, 5 mM imidazole, 0.5M NaCl; thymidylate synthase activity was eluted with 20 mM Tris pH 7.9, 60 mM imidazole, 0.5M NaCl.
(§1) Enzyme Assays and Kinetic Measurements. Thymidylate synthase assays were done in 96 well Costar UV transparent plates in a reaction volume of 200 μL, consisting of 40 mM Tris pH 7.5, 25 mM MgCl2, 1 mM EDTA, 25 mM-mercaptoethanol, 125M dUMP, and 65 μM N5, N10-methylene tetrahydrofolate indicated. Tetrahydrofolate stock solutions were prepared by dissolving tetrahydrofolic acid (Sigma) directly into 0.2M Tris pH 7.5, 0.5 M-mercaptoethanol; stock solutions were stored at −80° C. N5, N10-methylene tetrahydrofolate was prepared by adding 12 μl of 3.8% formaldehyde to 1 ml of a 0.65 mM solution of tetrahydrofolate and incubating for 5 minutes at 37° C. N5, N10-methylene tetrahydrofolate was kept on ice and used within 2 hours of preparation.
Enzyme kinetic constants (Km and Vmax) were determined for the human thymidylate synthase substrates dUMP and BVdUMP using the enzyme assay conditions described above. The initial rates of the enzyme reactions was determined by measuring the increase in A340 for the reaction with dUMP, and decrease in A294 for the reaction with BVdUMP. The catalytic efficiency of the enzyme (Kcat/Km) was calculated from the kinetic constants Km and Vmax.

rHuTS [2] = target: T2, rHuTS (Homo sapiens, UniProt P04818); experiment: Inhibition of rHuTS reactions by Tomudex and 5-FdUMP (initial rates); format: biochemical; details: 30° C., fluorescence 340/595 nm
T2 construct: His tag (from pET-28a(+)) (N); made in house; host or cells: E. coli BL21 (DE3)/pET-28a(+)
Protocol: as §1
Conversion of BVdUMP to fluorescent product(s) by thymidylate synthase was measured in 200 μl thymidylate synthase reactions containing 125M BVdUMP in 96 well Dynex Microfluor Black “U” bottom microtiter plates using an excitation wavelength of 340 nm and emission wavelength of 595 nm. Fluorescence was measured with a Tecan Spectrafluor Plus fluorimeter.

rHuTS [3] = target: T2, rHuTS; experiment: Preincubation of rHuTS with BVdUMP (enzyme inactivation); format: biochemical; details: 20 hour incubation with 125 μM BVdUMP, then dUMP as substrate
Protocol: Human thymidylate synthase was pre-incubated in reaction mixtures with and without 125 μM BVdUMP. After 20 hours, BVdUMP was added to a concentration of 125 μM, dUMP to a final concentration of 125 μM, and N5, N10-methylene tetrahydrofolate was added to 70 μM. Thymidylate synthase activity was determined by measuring the increase in A340. Solid circles (preincubated reaction), Open circles (no preincubation).
To help further clarify this situation, an extended incubation of rHuTS with BVdUMP was done in order to measure any inactivation that may occur over a period of time longer than that in which the kinetics were performed (FIG. 2).

Lactobacillus casei TS = target: T3, Lactobacillus casei TS (Lacticaseibacillus casei, UniProt P00469); details: cited from earlier work
T3 sequence (P00469 1-316): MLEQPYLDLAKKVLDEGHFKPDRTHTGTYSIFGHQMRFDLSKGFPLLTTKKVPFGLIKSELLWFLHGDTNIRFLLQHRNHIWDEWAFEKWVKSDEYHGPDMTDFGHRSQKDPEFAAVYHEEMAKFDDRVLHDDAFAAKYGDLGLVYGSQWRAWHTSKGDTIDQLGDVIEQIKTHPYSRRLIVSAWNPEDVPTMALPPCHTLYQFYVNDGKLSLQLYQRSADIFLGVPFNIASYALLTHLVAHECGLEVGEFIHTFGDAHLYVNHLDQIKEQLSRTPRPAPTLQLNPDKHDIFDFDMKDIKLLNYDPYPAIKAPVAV

T2 sequence (P04818 whole entry): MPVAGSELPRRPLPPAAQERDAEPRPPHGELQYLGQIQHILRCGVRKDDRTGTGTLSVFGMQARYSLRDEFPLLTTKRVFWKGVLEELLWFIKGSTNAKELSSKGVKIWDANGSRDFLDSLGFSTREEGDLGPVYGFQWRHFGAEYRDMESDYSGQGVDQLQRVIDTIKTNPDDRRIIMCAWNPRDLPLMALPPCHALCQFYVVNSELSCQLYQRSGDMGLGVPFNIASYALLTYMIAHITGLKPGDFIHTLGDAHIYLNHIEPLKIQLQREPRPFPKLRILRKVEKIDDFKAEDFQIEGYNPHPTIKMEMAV
T1 sequence (P04818 whole entry): as above

## O=c1[nH]c(=O)n([C@H]2C[C@H](O)[C@@H](COP(=O)(O)O)O2)cc1/C=C/Br [BVdUMP, Bromovinyl, 2′-Deoxyuridine Monophosphate]
[1]; rHuTS
  Kcat: 0.0067 s⁻¹
[1]; rHuTS, dUMP reaction, read-out: Kl (of BVdUMP)
  Ki: 4.5 µM
[1]; rHuTS, substrate
  Km: 16 µM
[1]; relative to endogenous substrate dUMP
  improved efficiency of conversion of BVdUMP, human enzyme vs L. casei enzyme: > 6.4 fold
rHuTS [2]; BVdUMP + THF
  initial rate of rHuTS reaction, No Inhibitor: 109 ± 16 RFU/min
rHuTS [2]; BVdUMP − THF
  initial rate of rHuTS reaction, No Inhibitor: 75 ± 11 RFU/min
rHuTS [3]
  inactivation of rHuTS: little or no enzymatic inactivation
Lactobacillus casei TS
  Kcat: 0.018 s⁻¹
Lactobacillus casei TS; dUMP reaction, read-out: Kl (of BVdUMP)
  Ki: 600 nM
Lactobacillus casei TS; substrate
  Km: 3.3 µM
